In brackets after ≈: the same amount, converted by molar mass. Like-named read-outs stand apart in the source and are kept apart here.
Key:
[1] = tested on: M. morganii, Ent. cloacae and Ser. marcescens; assay: MIC, two-fold serial agar dilution in Mueller-Hinton agar, group (G-)-II; format: cell-based; conditions: (G-)-II, M. morganii (1), Ent. cloacae (2), Ser. marcescens (2 strains); read-out: Geometric Mean of MIC
Method: (§1) In the primary evaluation of the compounds of this invention, the Minimum Inhibitory Concentrations (MIC's) of the compounds were determined by the two-fold serial agar dilution method in Mueller-Hinton agar against 32 strains of test organisms in six groups.
(G-)II: M. morganii (1 strain), Ent. cloacae (2 strains) and Ser.

[2] = tested on: Penicillinresistant S. aureus; assay: MIC, two-fold serial agar dilution in Mueller-Hinton agar, group (G+)-Ib; format: cell-based; conditions: Staphylococcus aureus, read-out: Geometric Mean of MIC
Method: as §1
(G+)Ib: Penicillinresistant S. aureus (5 strains)

[3] = Mouse blood levels after single intramuscular injection; format: in vivo, mice; conditions: for concentration at 10 min / concentration at 20 min / concentration at 0.5 h / concentration at 40 min / concentration at 50 min / concentration at 1 h / concentration at 1.5 h: read-out: Mouse Blood Level; for concentration at 0.5 h: 30 minutes; for concentration at 1 h: 60 minutes; for concentration at 1.5 h: 90 minutes
Method: The absorption of some of the preferred compounds were determined in mice following a single intramuscular injection of the test compound (dissolved in 0.1M phosphate buffer; pH 7) at a dosage of 10, 20 or 40 mg/kg. Blood samples were collected from the orbital sinuses into heparinized capillary tubes and assayed in Nutrient Agar (pH 6.6) using E. coli Ess-22-31 as the test organism. The blood levels at various time intervals, the half-life values (t1/2) and the areas under the curve (AUC) are shown in Table 3.

Ps. aeruginosa A9843 = assay: MIC against specific test organism; format: cell-based; conditions: Pseudomonas aeruginosa, read-out: Minimum Inhibitory Concentration
Method: as §1
(§2) The test method was as described for Table 1.

M. morganii A9553 = assay: MIC against specific test organism; format: cell-based; conditions: Morganella morganii, read-out: Minimum Inhibitory Concentration
Method: as §1, §2

E. coli A15164 = assay: MIC against specific test organism; format: cell-based; conditions: Escherichia coli; E. coli A15164, cephalothin-resistant strain; read-out: Minimum Inhibitory Concentration
Method: as §1, §2

S. aureus Smith = assay: MIC against specific test organism; format: cell-based; conditions: Staphylococcus aureus, read-out: Minimum Inhibitory Concentration
Method: as §1, §2

Ent. cloacae A9656 = assay: MIC against specific test organism; format: cell-based; conditions: Enterobacter cloacae, read-out: Minimum Inhibitory Concentration
Method: as §1, §2

S. aureus BX-1633-2 = assay: MIC against specific test organism; format: cell-based; conditions: Staphylococcus aureus, BX16332; S. aureus BX-1633-2, penicillin-resistant strain; read-out: Minimum Inhibitory Concentration
Method: as §1, §2

Ser. marcescens A20019 = assay: MIC against specific test organism; format: cell-based; conditions: Serratia marcescens, read-out: Minimum Inhibitory Concentration
Method: as §1, §2

K. pneumoniae D11 = assay: MIC against specific test organism; format: cell-based; conditions: Klebsiella pneumoniae, read-out: Minimum Inhibitory Concentration
Method: as §1, §2

Ps. aeruginosa A20717 = assay: MIC against specific test organism; format: cell-based; conditions: Pseudomonas aeruginosa, read-out: Minimum Inhibitory Concentration
Method: as §1, §2

E. coli Juhl = assay: MIC against specific test organism; format: cell-based; conditions: Escherichia coli, read-out: Minimum Inhibitory Concentration
Method: as §1, §2

Ps. aeruginosa A15150 = assay: MIC against specific test organism; format: cell-based; conditions: Pseudomonas aeruginosa, read-out: Minimum Inhibitory Concentration
Method: as §1, §2

Pr. mirabilis A9554 = assay: MIC against specific test organism; format: cell-based; conditions: Proteus mirabilis, read-out: Minimum Inhibitory Concentration
Method: as §1, §2

K. pneumoniae A9867 = assay: MIC against specific test organism; format: cell-based; conditions: Klebsiella pneumoniae, A9867, read-out: Minimum Inhibitory Concentration
Method: as §1, §2

[4] = tested on: Cephalothinresistant E. coli and Kl. pneumoniae; assay: MIC, two-fold serial agar dilution in Mueller-Hinton agar, group (G-)-Ib; format: cell-based; conditions: read-out: Geometric Mean of MIC
Method: as §1
(G-)Ib: Cephalothinresistant E. coli (3 strains) and Kl. pneumoniae (3

Ps. aeruginosa = assay: MIC, two-fold serial agar dilution in Mueller-Hinton agar, group (G-)-III; format: cell-based; conditions: Pseudomonas aeruginosa, Ps. aeruginosa (6 strains), read-out: Geometric Mean of MIC
Method: as §1

[5] = tested on: Penicillinsensitive S. aureus; assay: MIC, two-fold serial agar dilution in Mueller-Hinton agar, group (G+)-Ia; format: cell-based; conditions: Staphylococcus aureus; (G+)-Ia, penicillin-sensitive S. aureus (5 strains); read-out: Geometric Mean of MIC
Method: as §1

[6] = tested on: Cephalothinsensitive E. coli, Kl. pneumoniae and Pr. mirabilis; assay: MIC, two-fold serial agar dilution in Mueller-Hinton agar, group (G-)-Ia; format: cell-based; conditions: (G-)-Ia, cephalothin-sensitive E. coli (2), Kl. pneumoniae (1), Pr. mirabilis (2 strains); read-out: Geometric Mean of MIC
Method: as §1
(G-)Ia: Cephalothinsensitive E. coli (2 strains), Kl. pneumoniae (1
strain) and Pr. mirabilis (2 strains)

## CSc1scc[n+]1CC1=C(C(=O)[O-])N2C(=O)C(NC(=O)/C(=N\OC(C)(C)C(=O)O)c3csc(N)n3)[C@H]2SC1 (stereo partly shown) [Example 1, 7-[(Z)-2-(2-Aminothiazol-4-yl)-2-(2-carboxyprop-2-oxyimino)acetamido]-3-(2-methylthiothiazolio)methyl-3-cephem-4-carboxylate]
[1]
  MIC: 0.24 µg/mL (≈ 0.401 µM)
[2]
  MIC: 3.6 µg/mL (≈ 6.01 µM)
[3]; 10 mg/kg im
  AUC: 5000 ng·h/mL
  half-life: 15 min
  concentration at 10 min: 12000 ng/mL
  concentration at 20 min: 7400 ng/mL
  concentration at 0.5 h: 4700 ng/mL
  concentration at 40 min: < 3000 ng/mL
[3]; 20 mg/kg im
  AUC: 16000 ng·h/mL
  half-life: 14 min
  concentration at 10 min: 33000 ng/mL
  concentration at 20 min: 24000 ng/mL
  concentration at 0.5 h: 18000 ng/mL
  concentration at 40 min: 9400 ng/mL
  concentration at 50 min: 6700 ng/mL
  concentration at 1 h: 3500 ng/mL
  concentration at 1.5 h: < 3000 ng/mL
[3]; 40 mg/kg im
  AUC: 25000 ng·h/mL
  half-life: 13 min
  concentration at 10 min: 51000 ng/mL
  concentration at 20 min: 40000 ng/mL
  concentration at 0.5 h: 29000 ng/mL
  concentration at 40 min: 15000 ng/mL
  concentration at 50 min: 9000 ng/mL
  concentration at 1 h: 4600 ng/mL
  concentration at 1.5 h: < 3000 ng/mL
Ps. aeruginosa A9843
  MIC: 1.6 µg/mL (≈ 2.67 µM)
M. morganii A9553
  MIC: 0.1 µg/mL (≈ 0.167 µM)
E. coli A15164
  MIC: 0.8 µg/mL (≈ 1.34 µM)
S. aureus Smith
  MIC: 1.6 µg/mL (≈ 2.67 µM)
Ent. cloacae A9656
  MIC: 0.1 µg/mL (≈ 0.167 µM)
S. aureus BX-1633-2
  MIC: 3.1 µg/mL (≈ 5.18 µM)
Ser. marcescens A20019
  MIC: 0.1 µg/mL (≈ 0.167 µM)
K. pneumoniae D11
  MIC: 0.1 µg/mL (≈ 0.167 µM)
Ps. aeruginosa A20717
  MIC: 3.1 µg/mL (≈ 5.18 µM)
E. coli Juhl
  MIC: 0.1 µg/mL (≈ 0.167 µM)
Ps. aeruginosa A15150
  MIC: 0.8 µg/mL (≈ 1.34 µM)
Pr. mirabilis A9554
  MIC: 0.05 µg/mL (≈ 0.0835 µM)
K. pneumoniae A9867
  MIC: 1.6 µg/mL (≈ 2.67 µM)
[4]
  MIC: 0.69 µg/mL (≈ 1.15 µM)
Ps. aeruginosa
  MIC: 1.4 µg/mL (≈ 2.34 µM)
[5]
  MIC: 1.2 µg/mL (≈ 2 µM)
[6]
  MIC: 0.038 µg/mL (≈ 0.0635 µM)
